Data from patent US20140228682A1, “IMAGING PROBES, IMAGING SYSTEMS, AND METHODS OF IMAGING” (priority 2013, published 2014).

Key:
cartilage [1] = assay: small animal PET imaging of cartilage / osteoarthritis joints in mice; assay type: in vivo
Experimental: The mice were injected with ^89Zirconium oxalate through tail vein and then imaged by small animal PET.
(§1) The mice were injected with tracer through tail vein and then imaged at 5 days post-injection by small animal PET (left two columns of images) and optical imaging instrument (in vivo and ex vivo) (right two columns images).

cartilage [2] = assay: optical (Cerenkov) imaging of joints in mice, in vivo and ex vivo; conditions: FIG. 3, tail vein injection, 5 days post-injection, optical imaging instrument (in vivo and ex vivo)
Experimental: as §1

[3] = FIG. 3, tail vein injection, 5 days post-injection

## ^89Zr oxalate
Cartilage [1]; FIG. 2, tail vein injection
  signal in OA joints: low signal
  signal in sham and untreated joints: high signal
Cartilage [1]; [3]
  signal in OA joints: low signal
  signal in sham and untreated joints: high signal
Cartilage [2]
  signal in OA joints: low signal
  signal in sham and untreated joints: high signal
